Patent publication EP0437846A2, “Solutions of decaplanin salts, their preparation and their use, as well as crystalline decaplanin salts, their preparation and their use” (HOECHST AKTIENGESELLSCHAFT, priority 1990, dated 1991)
Structures can show the parent of a compound that is named as a salt. Where two headings read alike, the source gives them in different places.

What was measured:
solubility in water = settings: result in words
[1] = viscosity / gelling of aqueous salt solutions; format: physicochemical; settings: result in words
Method: 10,2 g des nach Beispiel 3 gewonnenen Gefriertrocknungsproduktes werden in 90 ml Wasser gelöst. Sie ergeben 100 ml einer Flüssigkeit mit einer Viskosität von weniger als 3 Centipoise (cP) bei 20 °C.
10 g des nach Beispiel 3 gewonnenen Produktes werden in 40 ml Wasser aufgenommen und durch Zugabe von […] Eisessig eine Decaplanindiacetatlösung hergestellt. Die Lösung hat einen pH-Wert von 4,2. Ihre Viskosität beträgt weniger als 3 cP bei 20 °C.

isoelectric point = format: physicochemical
[2] = toxicity and tolerability on injection; settings: result in words; for Verträglichkeit: injection
[3] = thermal stability of aqueous solution (80 °C, 20 h); format: physicochemical
Source text: Erfindungsgegenstand ist demzufolge eine wäßrige Lösung eines Decaplaninsalzes, ausgewählt aus der Gruppe der Decaplaninacetate, Decaplaninphosphate und Decaplanintartrate. Aus dieser Gruppe sind die Decaplaninacetate besonders bevorzugt. Die erfindungsgemäßen wässrigen Lösungen haben wie bereits erläutert den Vorteil, daß in ihnen das jeweilige Salz in relativ hoher Konzentration vorliegen kann, ohne daß das betreffende Salz ausfällt. […] So zeigt sich z.B. in einer 0,2 %igen wäßrigen Decaplaninmonoacetatlösung bei einer 20 stündigen Temperaturbelastung von 80 °C nur ein Wirkstoffverlust von weniger als 5 %; Vancomycinhydrochlorid hingegen weist bei einer analogen Behandlung nur noch einen Gehalt von etwa 25 % Vancomycinhydrochlorid auf. Die Instabilität des Vancomycins resultiert aus seiner Umwandlung zum sogenannten CDP (vgl. F. Sztaricskai und R. Bognar, Chemistry of the Vancomycin Group of Antibiotics. In:Recent Developments in the Chemistry of Natural Carbon Compounds, Vol. 10, PP 93-201, 1984, Akademiai Kiado, Budapest, 1983). Es ist besonders überraschend, daß die erfindungsgemäßen Decaplaninsalze diese Umwandlung nicht in diesem Ausmaß erleiden. Weiterhin besonders überraschend ist die bereits erwähnte, im Gegensatz zum Vancomycinhydrochlorid stehende gute lokale Verträglichkeit der erfindungsgemäßen wäßrigen Decaplaninsalzlösungen, die ohne besondere Vorsichtsmaßnahmen - wie langsame Injektion - injiziert werden können und auch subcutan verabreichbar sind.

[4] = in vivo
[5] = water
[6] = general knowledge on the commercial form, cited from earlier work
[7] = commercial hydrochloride form, result in words; cited from earlier work

## Hydrochlorid
Solubility in water
  Löslichkeit in Wasser: nicht ausreichend löslich
[1]
  Gelieren / Viskosität der wäßrigen Lösung: zähflüssig

## Decaplanin
Solubility in water
  Löslichkeit in Wasser: relativ wenig wasserlöslich
Isoelectric point
  isoelektrischer Punkt: 8,1 pH
[2]
  Verträglichkeit: gute Verträglichkeit
  Toxizität: sehr geringe Toxizität

## Decaplaninmonoacetat
[3]; water, 20 h
  Wirkstoffverlust: < 5%

## Decaplaninphosphate
[4]
  Verträglichkeit: gute Verträglichkeit
[2]
  Toxizität: sehr geringe Toxizität

## Decaplaninacetat
[5]
  Löslichkeit (Konzentration): ca. 20 Gew.-%
[3]
  Stabilität der Lösung: stabil
[4]
  Toxizität: sehr geringe Toxizität
[1]
  Gelieren / Viskosität der wäßrigen Lösung: dünnflüssig

## CN[C@H](CC(C)C)C(=O)N[C@H]1C(=O)N[C@@H](CC(N)=O)C(=O)N[C@H]2C(=O)N[C@H]3C(=O)N[C@H](C(=O)N[C@H](C(=O)O)c4cc(O)cc(O)c4-c4cc3ccc4O)[C@H](O)c3ccc(c(Cl)c3)Oc3cc2cc(c3O[C@@H]2O[C@H](CO)[C@@H](O)[C@H](O)[C@H]2O[C@H]2C[C@](C)(N)[C@H](O)[C@H](C)O2)Oc2ccc(cc2Cl)[C@H]1O [Vancomycinhydrochlorid]
[3]; water, remaining content after analogous treatment (20 h, 80 °C), read-out: Gehalt
  remaining at 20 h: ~25%
[6]
  Nebenwirkungen: lokale Nekrosen, das "red man-Syndrom" sowie Oto- und Nephrotoxizität
[6]; injection
  Verträglichkeit: schlecht verträglich
[7]
  Löslichkeit: relativ wenig löslichen Form

## Decaplanintartrate
Solubility in water
  Löslichkeit in Wasser: gutes Löslichkeitsverhalten
[2]
  Verträglichkeit: gute Verträglichkeit
  Toxizität: sehr geringe Toxizität
